Data taken from patent publication US10934258B2, “Materials for use in an aqueous organic redox flow battery” (Utah State University, priority 2016, dated 2021).
≈ marks a conversion by molar mass, not a printed value. Where “and” joins values, the source holds several entries; their conditions need not be identical. Equal values may be shown once. Blank lines part the entries; values can stand above or below the molecule they belong to.

Key:
[1] = Solubility by preparing a super-saturated solution; conditions: for solubility: thermodynamic from solid
Method: Chemicals and Materials. All chemicals were purchased from Aldrich or TCI, stored in an Argon glovebox, and used directly. Solubility of substituted ferrocene compounds was measured in water by preparing a super-saturated solution in a volumetric cylinder. Deionized water was purged overnight using N2 before use. All experimental operations were conducted under a N2 atmosphere. Conductivity of the electrolyte solutions was measured using a Mettler Toledo conductivity meter at R.T. NMR studies were conducted using a Bruker 500 MHz NMR spectrometer. UV-Vis was collected using an Ocean Optic spectrometer. Elemental analysis was done at Atlantic Microlab.
Calculation of theoretical energy density: The theoretical energy density of the FcNCl/MV AORFB was calculated using equation 3 below, where n is the number of electrons involved into the cell reaction, C is the concentration of active materials, F is Faraday constant, 26.8 Ah/mol, V is the cell voltage, and 2 represents a factor considering both volumes of anolyte and catholyte. Solubility of FcNCl and MV was measured in water respectively by preparing a super-saturated solution. Similar solubility tests in water were applied for ferrocenecarboxylic acid, 1-1′-ferrocenedicarboxilic acid, ferrocenecarboxylic acid, and 1,1′-ferrocenedimethanol. Energy density (Wh/L)=nCFV/2 (equation 3)

[2] = Cyclic and square wave voltammetry (redox potentials); assay type: physicochemical; conditions: for redox / reversible oxidation potential of catholyte: electrolyte not stated; for Exp. E1/2, first reduction: first redox couple; for Exp. E1/2, first reduction / Exp. E1/2, second reduction / redox potential (redox wave in cyclic voltammogram): 4 mM in 0.5 M NaCl; for Exp. E1/2, second reduction: second redox couple
Method: Electrochemical Cyclic voltammetry (CV) studies. All electrochemical CV experiments were carried out in 0.5 M NaCl electrolyte solutions. Cyclic voltammetry experiments were performed with a Gamry 1000E potentiostat. All potentials were referenced to NHE according to the known MV^2+/1+ redox couple (−0.45 V vs NHE). The working electrode (1 mm PEEK-encased glassy carbon, Cypress Systems EE040) was polished using Al2O3(BAS CF-1050, dried at 150° C. under vacuum) suspended in deionized H2O, then rinsed with deionized H2O and dried with an air flow. The reference electrode was a silver wire coated with a layer of AgCl and suspended in a solution of 0.5 M NaCl electrolyte. A glassy carbon rod (Structure Probe, Inc.) was used as the counter electrode.
Cyclic and square wave voltammetry studies: All experiments were conducted in an […], 0.5 M NaCl aqueous solution, and performed with a Gamry 1000E potentiostat. A 1 mm PEEK encased glassy carbon disk was used as the working electrode. The working electrode was polished with 0.05 micron Al2O3 powder and rinsed with deionized H2O. A glassy carbon rod was used as the counter electrode. A silver wire coated with AgCl and suspended in 3.0 M KCl electrolyte was used as the reference electrode.
The redox potentials were calculated directly versus MV which was derived from the Born-Haber method. This calculation predicts the redox potential of the viologen by comparing it to the experimentally determined potentials for MV. Square wave voltammetry was employed to most accurately measure E1/2 for the two reductions of viologen compounds (FIG. 42). The calculation of the theoretical redox potential vs MV can be simplified as shown below: […]

[3] = RDE linear sweep voltammetry with Levich and Tafel analysis; assay type: physicochemical; conditions: 1.0 mM in 0.5 M NaCl
Method: Electrochemical RDE studies: All linear sweep voltammetry (LSV) studies were conducted using a Gamry 1000E potentiostat in a three-electrode configuration, a glassy carbon disk working electrode (5 mm Teflon encased glassy carbon disk, Pine Research Instrumentation) along with a glassy carbon counter electrode and a Ag/AgCl reference electrode same as used in CV studies. Before data collection, the disk electrode was prepared using the procedure described in the CV studies. The electrode was then rotated at from 300 to 2400 rpm with an increment of 300 rpm, which was controlled by a Pine MSR rotator system. LSV scans were recorded at a rate of 5 mV/s from 0.3 V to 0.8 V vs NHE. At each rotation rate, the LSV were recorded 3 times to ensure repeatability. The limiting currents (i.e. the mass transport-limited current intensity) were taken at 0.7 V vs NHE for FcNCl and plotted over the square root of the rotation rate (rad/s). The data were fitted to yield a straight Levich plot, with the slope defined by the Levich equation (equation 1 below), where n=1 for one electron process, Faraday's constant F=96485 C/mol, electrode area A=0.1935 cm^2, FcNCl concentration Co=1.0 mM, D is diffusion coefficient, kinematic viscosity n=0.009 cm^2/s for 0.5 M NaCl solution. The calculations yielded the diffusion coefficients of FcNCl as 3.25×10^−6 cm^2/s. A plot of overpotential versus log10(iK) was constructed for the LSV data collected at […] for FcNCl where iK is the kinetic current for the oxidation of FcNCl. […] Levich plot slope=0.620nFACOD^2/3v^−1/6 (equation 1) i0=FACOk0 (equation 2)
Electrochemical RDE studies: Linear sweep voltammetry (LSV) experiments were conducted using a Gamry 1000E potentiostat with a three-electrode system. A 5 mm rotating glassy carbon disk encased in Teflon served as the working electrode. A glassy carbon rod was used as the counter electrode. A Ag/AgCl wire served as the reference electrode. The working electrode was cleaned using the same method as in the CV experiments. During the experiments, the working electrode rotated from 300 rpm to 2400 rpm at increments of 300 rpm. Three scans at each rotation rate were collected to ensure accuracy. (NPr)2V: LSV scans were conducted at a rate of 5 mV/s from 0.1 V to −1.2 V versus NHE. The limiting currents (mass transport-limited current intensity) at each rotation rate were recorded at −0.57 V and −0.95 V versus NHE. […] The slopes of these fitted lines are defined by the Levich equation, Levich Plot Slope=0.620nFAC0D^2/3v^−1/6 (equation 1)
[…] Plots of overpotential versus log10(ik) were constructed from the 2400 rpm LSV, where ik is the kinetic current of each reduction of (NPr)2V. The x-intercept of the fitted Tafel plot represents the log of the exchange current i0 that is defined by: i0=FAC0k^0 (equation 2)
where F, A, and C0 are defined above, and k^0 represents the electron transfer rate constant.
(NPr)(SPr)V, (Me)(NPr)V, (SPr)2V, and [FcN^Et]Br: LSV scans were collected and analyzed using the same techniques described for (NPr)2V.

[4] = Conductivity of the electrolyte solutions; assay type: physicochemical; design: electrolyte conductivity: unit not given here
Method: Chemicals and Materials. […] Deionized water was purged overnight using N2 before use. All experimental operations were conducted under a N2 atmosphere. […] UV-Vis was collected using an Ocean Optic spectrometer. Elemental analysis was done at Atlantic Microlab.

[5] = known value, potential reference; cited from earlier work

Molecule: CC1(C)CC([N+](C)(C)C)CC(C)(C)N1[O].[Cl-] [4-N^Me-TEMPO, N, N, N, 2,2,6,6-Heptamethylpiperidinyloxy-4-ammonium chloride]
solubility in H2O [1]: 2500 mM
redox / reversible oxidation potential of catholyte [2]: 1.06 V vs NHE

solubility ([1]; water): 2300 mM
redox / reversible oxidation potential of catholyte [2]: 1.06 V vs NHE
Molecule: CC1(C)CC([N+](C)(C)CCC[N+](C)(C)C)CC(C)(C)N1O [4-N^NPr-TEMPO, N^1, N^1, N^1, N^3, N^3,2,2,6,6-nonamethyl-N^3-(piperidinyloxy)propane-1,3-bis(ammonium) dichloride]

Molecule: C[n+]1ccc(-c2cc[n+](CCC[N+](C)(C)C)cc2)cc1.[Cl-].[Cl-].[Cl-] [(Me)(NPr)V, 1′-methyl-4′-pyridinium-1-[3-(trimethylaminium)propyl]-4-pyridinium trichloride]
solubility in H2O [1]: 1800 mM
solubility in water, [C] [1]: 1800 mM
diffusion constant, D, first reduction ([3]; Levich): 5.40 × 10^−6 cm^2/s
diffusion constant, D, second reduction ([3]; Levich): 5.29 × 10^−6 cm^2/s
electron transfer rate constant, k^0, first reduction ([3]; Tafel): 2.39e-05 cm/s
electron transfer rate constant, k^0, second reduction ([3]; Tafel): 1.84e-05 cm/s
Exp. E1/2, first reduction [2]: −0.39 V vs. NHE
Exp. E1/2, second reduction [2]: −0.78 V vs. NHE

Molecule: C[N+](C)(C)CCC[n+]1ccc(-c2cc[n+](CCC[N+](C)(C)C)cc2)cc1.[Br-].[Br-].[Br-].[Br-] [(NPr)2V, 1,1′-bis[3-(trimethylamonium)propyl]-4,4′-bipyridinium, tetrabromide]
solubility in H2O [1]: 1600 mM
solubility in water, [C] [1]: 1600 mM
diffusion constant, D, first reduction ([3]; Levich): 3.88×10^−6 cm^2/s
diffusion constant, D, second reduction ([3]; Levich): 3.84×10^−6 cm^2/s
electron transfer rate constant, k^0, first reduction ([3]; Tafel): 4.32e-06 cm/s and 4.32e-05 cm/s
electron transfer rate constant, k^0, second reduction ([3]; Tafel): 2.46e-06 cm/s and 2.46e-05 cm/s
effective redox potential (average of the two reductions) ([2]; average of −0.35 and −0.72 V): −0.54 V
Exp. E1/2, first reduction [2]: −0.35 V vs. NHE
Exp. E1/2, second reduction [2]: −0.72 V vs. NHE

Molecule: C[N+](C)(C)CCC[n+]1ccc(-c2cc[n+](CCCS(=O)(=O)[O-])cc2)cc1.[Br-].[Br-] [(NPr)(SPr)V, 1′-[3-(trimethylammonium)propyl]-4′-pyridinium-1-[3-sulfonatopropyl]-4-pyridinium dibromide]
solubility in H2O [1]: 1600 mM
solubility in water, [C] [1]: 1600 mM
diffusion constant, D, first reduction ([3]; Levich): 4.96 × 10^−6 cm^2/s
diffusion constant, D, second reduction ([3]; Levich): 5.04 × 10^−6 cm^2/s
electron transfer rate constant, k^0, first reduction ([3]; Tafel): 3.5e-05 cm/s
electron transfer rate constant, k^0, second reduction ([3]; Tafel): 2.09e-05 cm/s
Exp. E1/2, first reduction [2]: −0.37 V vs. NHE
Exp. E1/2, second reduction [2]: −0.74 V vs. NHE

Molecule: O=S(=O)([O-])CCC[n+]1ccc(-c2cc[n+](CCCS(=O)(=O)[O-])cc2)cc1 [(SPr)2V, 1,1′-bis[3-sulfonatopropyl]-4,4′-bipyridinium]
solubility in water, [C] [1]: 2000 mM (≈ 801 mg/mL)
solubility ([1]; saline or isotonic): 1700 mM (≈ 681 mg/mL)
solubility ([1]; water): 2000 mM (≈ 801 mg/mL)
diffusion constant, D, first reduction ([3]; Levich): 3.26×10^−6 cm^2/s
diffusion constant, D, second reduction ([3]; Levich): 2.81 × 10^−6 cm^2/s
electron transfer rate constant, k^0, first reduction ([3]; Tafel): 1.49e-05 cm/s
electron transfer rate constant, k^0, second reduction ([3]; Tafel): 3.96e-05 cm/s
Exp. E1/2, first reduction [2]: −0.43 V vs. NHE
Exp. E1/2, second reduction [2]: −0.79 V vs. NHE
conductivity ([4]; 0.6 M in 1.5 M KCl): 103.2 mS/cm

Molecule: CC(C[N+](C)(C)C[c-]1cccc1)[N+](C)(C)C.[Br-].[Br-].[Fe+2].c1cc[cH-]c1 (centres unmarked) [FcN2, N^1-ferrocenylmethyl-N^1, N^1, N^2, N^2, N^2-pentamethylpropane-1,2-diaminium dibromide]
redox potential (redox wave in cyclic voltammogram) [2]: 0.62 V vs NHE

Molecule: C[N+](C)(C)C[c-]1cccc1.[Cl-].[Fe+2].c1cc[cH-]c1 [FcNCl, (ferrocenylmethyl)trimethylammonium chloride]
solubility ([1]; water): ~4000 mM
diffusion coefficient (oxidation) ([3]; Levich): 3.25×10^−6 cm^2/s and 3.74×10^−6 cm^2/s
electron transfer rate constant k0 (oxidation) ([3]; Tafel): 2.29e-05 cm/s and 3.66e-05 cm/s
exchange current i0 ([3]; Tafel X-intercept): 0.7 μA
redox potential (redox wave in cyclic voltammogram) [2]: 0.60 V vs NHE
electrolyte conductivity ([4]; 0.5 M in 2.0 M NaCl): 135

Molecule: [I-].[K+] [KI, reference compound]
redox / reversible oxidation potential of catholyte [2]: 0.65 V vs NHE

Molecule: C[n+]1ccc(-c2cc[n+](C)cc2)cc1 [MV, methyl viologen, reference compound]
solubility in 2.0 M NaCl solution ([1]; 2.0 M NaCl solution): above 2.0 M
solubility in water, [C] [1]: 2500 mM
diffusion constant, D, first reduction ([3]; Levich): 2.57 × 10^−5 cm^2/s
electron transfer rate constant, k^0, first reduction ([3]; Tafel): 0.00028 cm/s
Exp. E1/2, first reduction [2]: −0.45 V vs. NHE
Exp. E1/2, second reduction [2]: −0.76 V vs. NHE
MV^2+/1+ redox couple used as reference [5]: −0.45 V vs NHE

Molecule: [Br-].[Br-].[Zn+2] [ZnBr2, reference compound]
redox potential (redox wave in cyclic voltammogram) [2]: −1.2 V vs NHE

Molecule: CC[N+](C)(C)C[c-]1cccc1.[Br-].[Fe+2].c1cc[cH-]c1 [[FcN^Et]Br, (ferrocenylmethyl)ethyldimethylammonium bromide]
solubility ([1]; water): 3750 mM
redox potential (redox wave in cyclic voltammogram) [2]: 0.60 V vs NHE

Molecule: C[N+](C)(C)CCC[c-]1cccc1.[Cl-].[Fe+2].c1cc[cH-]c1 [prop-FcNCl, (ferrocenylpropyl)trimethylammonium chloride]
solubility ([1]; water): ~2200 mM

redox potential (redox wave in cyclic voltammogram) [2]: ~0.77 V vs NHE and 1.0 V vs NHE
Molecule: disodium (ferrocenyl)sulfurtrioxide [FcS]
